Test results published in patent US8575197B2, “Pyrolinone derivative and pharmaceutical composition comprising the same” (Shionogi & Co., Ltd., priority 2008, dated 2013).

Biological target: human P2X3 receptor (Homo sapiens (Human), UniProt P56373)
Experiment: P2X3 receptor inhibition, ATP-evoked Fluo-3 calcium fluorescence (FDSS 3000)
Format: cell-based
Conditions: C6BU-1 cell transfected with human P2X3 receptor gene; ATP-evoked Fluo-3 fluorescence
Procedure, shortened: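 C6BU-1 cells stably transfected with human P2X3, loaded with 4 μM Fluo-3-AM for 1 h at 37 °C in HEPES buffer pH 7.5 with probenecid. Compound added 5 min before 40 nM ATP solution; fluorescence followed 3 min. IC50 from ratio of peak post-ATP to baseline fluorescence.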

Sequence of human P2X3 receptor (P56373 whole entry): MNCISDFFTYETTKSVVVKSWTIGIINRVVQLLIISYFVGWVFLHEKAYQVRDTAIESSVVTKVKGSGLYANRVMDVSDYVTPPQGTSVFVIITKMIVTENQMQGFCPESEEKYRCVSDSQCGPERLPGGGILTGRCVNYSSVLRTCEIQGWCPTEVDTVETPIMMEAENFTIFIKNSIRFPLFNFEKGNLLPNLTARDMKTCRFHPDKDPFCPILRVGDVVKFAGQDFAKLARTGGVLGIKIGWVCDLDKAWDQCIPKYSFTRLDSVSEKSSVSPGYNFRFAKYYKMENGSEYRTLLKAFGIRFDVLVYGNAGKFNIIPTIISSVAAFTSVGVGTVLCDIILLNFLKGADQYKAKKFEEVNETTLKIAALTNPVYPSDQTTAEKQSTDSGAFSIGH

| Structure (SMILES) | IC50 [µM] |
| --- | --- |
| COc1ncccc1C1C(C(=O)C(C)(C)C)=C(O)C(=O)N1c1ccc(-c2ccco2)cc1 (stereo not shown) [Compound I-117] | 0.383 |
| Cc1nc(-c2ccc(N3C(=O)C(O)=C(C(=O)CC(C)C)C3c3ccccc3OCCCO)cc2)no1 (stereo not shown) [Compound I-445] | 0.152 |
| COc1ccc(F)cc1C1C(C(=O)C(C)(C)C)=C(O)C(=O)N1c1ccc(-c2ccon2)cc1 (stereo not shown) [Compound I-021] | 0.382 |
| O=C(C1=C(O)C(=O)N(c2ccc(-c3ccon3)cc2)C1C1CCCCC1)c1ccc(Br)cc1 (stereo not shown) [Compound I-016] | 0.079 |
| Cc1ccc(-c2ccc(N3C(=O)C(O)=C(C(=O)C(C)C)C3c3cccnc3OCCO)cc2)o1 (stereo not shown) [Compound I-483] | 0.089 |
| COCCOc1ccccc1C1C(C(=O)CC(C)C)=C(O)C(=O)N1c1ccc(-c2cc(C)no2)cc1 (stereo not shown) [Compound I-346] | 0.677 |
| CC(C)Oc1ccccc1C1C(C(=O)C(C)(C)C)=C(O)C(=O)N1c1ccc(-c2ccon2)cc1 (stereo not shown) [Compound I-105] | 0.097 |
| COc1ccccc1C1c2c(C(C)(C)CO)n[nH]c2C(=O)N1c1ccc(N(C)C)cc1 (stereo not shown) [II-011] | 0.319 |
| COc1ccccc1C1c2c(C(C)(C)C)n[nH]c2C(=O)N1c1ccc(N(C)C)cc1 (stereo not shown) [II-202] | 0.076 |
| COc1ccccc1C1c2c(C(C)C)n[nH]c2CN1C(=O)Nc1ccc(-c2ccsc2)cc1 (stereo not shown) [II-189] | 0.897 |
| Cc1ccc(-c2ccc(N3C(=O)C(O)=C(C(=O)CC(C)C)C3c3ccccc3C(=O)N3CCOCC3)cc2)o1 (stereo not shown) [Compound I-506] | 0.112 |
| COc1ccccc1C1c2c(C(C)C)n[nH]c2C(=O)N1c1ccc(-c2ccsc2)c(N)c1 (stereo not shown) [II-240] | 0.116 |
| COc1ncccc1C1C(C(=O)C(C)(C)C)=C(O)C(=O)N1c1ccc(-c2ccsc2)nc1 (stereo not shown) [Compound I-108] | 0.192 |
| COCCOc1ccccc1C1C(C(=O)CC(C)C)=C(O)C(=O)N1c1ccc(-c2coc(C)n2)cc1 (stereo not shown) [Compound I-391] | 0.684 |
| COCc1ccccc1C1c2c(C(C)(C)C)n[nH]c2C(=O)N1c1ccc(-c2noc(C)n2)cc1 (stereo not shown) [II-069] | 0.414 |
| CC(C)(C)c1n[nH]c2c1C(c1ccccc1O)N(c1ccc(-c3ccon3)cc1)C2=O (stereo not shown) [II-107] | 0.114 |
| Cc1cc(-c2ccc(N3C(=O)C(O)=C(C(=O)C(C)C)C3c3ccccc3OC(F)F)cc2)cs1 (stereo not shown) [Compound I-321] | 0.07 |
| CC(C)(C)C(=O)C1=C(O)C(=O)N(c2ccc(-c3cccs3)cc2)C1c1cccc[n+]1[O-] (stereo not shown) [Compound I-112] | 0.388 |
| COCc1ncccc1C1c2c(C(C)C)n[nH]c2C(=O)N1c1ccc(-c2ccsc2)cc1 (stereo not shown) [II-133] | 0.116 |
| COc1ccccc1C1C(S(C)(=O)=O)=C(O)C(=O)N1c1ccc(-c2ccc(C)o2)cc1 (stereo not shown) [Compound I-468] | 0.467 |
| COCCOc1ncccc1C1c2c(n[nH]c2C(C)C)C(=O)N1c1ccc(-c2nc(C)no2)cc1 (stereo not shown) [II-281] | 0.664 |
| COc1ccc(C(=O)C2=C(O)C(=O)N(c3ccc(-c4cccnc4)cc3)C2c2ccccc2OC)cc1 (stereo not shown) [Compound I-034] | 0.7 |
| COc1ccccc1C1C(C(=O)CC(C)C)=C(O)C(=O)N1c1ccc(-c2ccoc2)cc1 (stereo not shown) [Compound I-351] | 0.101 |
| COCCOc1ccccc1C1c2c(C(C)(C)CO)n[nH]c2C(=O)N1c1ccc(-c2ccon2)cc1 (stereo not shown) [II-132] | 0.141 |

| Structure (SMILES) | IC50 [µM] |
| --- | --- |
| COCCCOc1ccccc1C1C(C(=O)CC(C)C)=C(O)C(=O)N1c1ccc(-c2noc(C)n2)cc1 (stereo not shown) [Compound I-492] | 0.104 |
| COc1ccccc1C1C(C(=O)CC(C)C)=C(O)C(=O)N1c1ccc(-c2cscn2)cc1 (stereo not shown) [Compound I-420] | 0.257 |
| Cc1ccc(-c2ccc(N3C(=O)C(O)=C(C(=O)CC(C)C)C3c3ccccc3OC(F)(F)F)cc2)s1 (stereo not shown) [Compound I-338] | 0.147 |
| COc1ccccc1C1c2c(C(C)C)n[nH]c2C(=O)N1c1ccc(-c2ccsc2)c(CO)c1 (stereo not shown) [II-243] | 0.138 |
| Cc1ccc(-c2ccc(N3C(=O)C(O)=C(C(=O)C(C)C)C3c3ccccc3C(=O)N(C)C)cc2)s1 (stereo not shown) [Compound I-401] | 0.079 |
| Cc1ccc(-c2ccc(N3C(=O)C(O)=C(C(=O)C(C)C)C3c3ccccc3OC(F)(F)F)cc2)s1 (stereo not shown) [Compound I-334] | 0.078 |
| COCc1ccccc1C1C(C(=O)CC(C)C)=C(O)C(=O)N1c1ccc(C2=NCCS2)cc1 (stereo not shown) [Compound I-414] | 0.268 |
| COc1ccccc1C1C(C(=O)C(C)C)=C(O)C(=O)N1c1ccc(-c2cscn2)cc1 (stereo not shown) [Compound I-416] | 0.322 |
| CC(C)c1n[nH]c2c1C(c1cccnc1OCCO)N(c1ccc(-c3ccon3)cc1)C2=O (stereo not shown) [II-044] | 0.582 |
| COc1ccc(C(=O)C2=C(O)C(=O)N(c3nc4cc(OC)ccc4s3)C2c2ccccc2OCCO)cc1 (stereo not shown) [Compound I-125] | 0.11 |
| COCc1ncccc1C1C(C(=O)CC(C)C)=C(O)C(=O)N1c1ccc(-c2ccsc2)cc1 (stereo not shown) [Compound I-324] | 0.109 |
| CC(C)COc1ccccc1C1C(C(=O)C2CCCC2)=C(O)C(=O)N1c1ccc(-c2ccon2)cc1 (stereo not shown) [Compound I-513] | 0.065 |
| Cc1cc(-c2ccc(N3C(=O)C(O)=C(C(=O)CC(C)C)C3c3ccccc3OC(F)(F)F)cc2)on1 (stereo not shown) [Compound I-344] | 0.594 |
| COCCOc1ccccc1C1C(C(=O)CC(C)C)=C(O)C(=O)N1c1ccc(SC(F)(F)F)cc1 (stereo not shown) [Compound I-446] | 0.338 |
| COc1ccc(C(=O)C2=C(O)C(=O)N(c3ccc(C4=NCCS4)cc3)C2c2ccccc2OC)cc1 (stereo not shown) [Compound I-028] | 0.075 |
| COCCOc1ccccc1C1C(C(=O)CC(C)C)=C(O)C(=O)N1c1ccc(SC)cc1 (stereo not shown) [Compound I-435] | 0.082 |
| Cc1ccc(-c2ccc(N3C(=O)C(O)=C(C(=O)C(C)C)C3c3ccccc3N3CCCC3=O)cc2)s1 (stereo not shown) [Compound I-597] | 0.668 |
| COc1ccccc1C1c2c(C(C)C)n[nH]c2CN1c1ccc(-c2ccsc2)cc1 (stereo not shown) [II-067] | 0.153 |
| COCc1ncccc1C1c2c(C(C)(C)C)n[nH]c2C(=O)N1c1ccc(-c2ccsc2)cc1 (stereo not shown) [II-126] | 0.221 |
| CCc1ccccc1C1c2c(C(C)(C)C)n[nH]c2C(=O)N1c1ccc(-c2ccon2)cc1 (stereo not shown) [II-106] | 0.226 |
| Cc1nc(-c2ccc(N3C(=O)C(O)=C(S(=O)(=O)c4ccccc4)C3C3CCCCC3)cc2)no1 (stereo not shown) [Compound I-499] | 0.398 |
| COc1ncccc1C1C(C(=O)C(C)C)=C(O)C(=O)N1c1ccc(-c2ccc(C)s2)cc1 (stereo not shown) [Compound I-332] | 0.281 |
| CCOC(=O)C(C)(C)C(=O)C1=C(O)C(=O)N(c2ccc(-c3csc(C)c3)cc2)C1c1ccccc1OC (stereo not shown) [Compound I-470] | 0.972 |
| COc1ccccc1C1C(C(=O)C2CC2)=C(O)C(=O)N1c1ccc(-c2ccsc2)cc1 (stereo not shown) [Compound I-218] | 0.073 |

Stronger by IC50, values ahead:

| IC50 [µM] | Structure (SMILES) |
| --- | --- |
| 0.06 | COCCCOc1ncccc1C1C(C(=O)C(C)C)=C(O)C(=O)N1c1ccc(-c2csc(C)c2)cc1 (stereo not shown) [Compound I-571] |
| 0.032 | COC(=O)C(C)(C)CC(=O)C1=C(O)C(=O)N(c2ccc(-c3ccsc3)cc2)C1c1ccccc1OC (stereo not shown) [Compound I-556] |
| 0.011 | COc1ccccc1C1c2c(C(C)(C)CO)n[nH]c2C(=O)N1c1ccc(-c2cccs2)cn1 (stereo not shown) [II-264] |
| 0.01 | Cc1ccc(-c2ccc(N3C(=O)C(O)=C(C(=O)C(C)C)C3c3cccnc3OC(C)C)cc2)o1 (stereo not shown) [Compound I-479] |
| 0.015 | COCCOc1ncccc1C1C(C(=O)C(C)(C)C)=C(O)C(=O)N1c1ccc(-c2cccs2)cc1 (stereo not shown) [Compound I-149] |
| 0.037 | CCOc1ncccc1C1C(C(=O)C2CCCC2)=C(O)C(=O)N1c1ccc(-c2ccsc2)cc1 (stereo not shown) [Compound I-515] |
| 0.007 | COCCOc1cc(F)ccc1C1C(C(=O)C(C)C)=C(O)C(=O)N1c1ccc(-c2ccsc2)cc1 (stereo not shown) [Compound I-363] |
| 0.047 | COc1ccccc1C1C(C(=O)C(C)(C)C)=C(O)C(=O)N1c1ccc(-c2ccc(C)s2)cc1 (stereo not shown) [Compound I-210] |
| 0.013 | CC(C)COc1ccccc1C1C(C(=O)C(C)C)=C(O)C(=O)N1c1ccc(-c2ccsc2)cc1 (stereo not shown) [Compound I-449] |
| 0.035 | CCOc1ncccc1C1C(C(=O)CC(C)C)=C(O)C(=O)N1c1ccc(-c2ccsc2)cc1 (stereo not shown) [Compound I-440] |
| 0.053 | COc1ccc(C(=O)C2=C(O)C(=O)N(c3ccc(-c4nnc(C)o4)cc3)C2c2ccccc2OC)cc1 (stereo not shown) [Compound I-033] |
| 0.006 | COCCOc1ncccc1[C@@H]1C(C(=O)C(C)C)=C(O)C(=O)N1c1ccc(-c2ccsc2)cc1 [Compound I-395] |
| 0.017 | CC(C)(C)c1n[nH]c2c1C(c1cccnc1OCCO)N(c1ccc(-c3ccco3)cc1)C2=O (stereo not shown) [II-043] |
| 0.032 | COCCOc1ccccc1C1C(C(=O)C(C)(C)C)=C(O)C(=O)N1c1ccc(-c2ccoc2)cc1 (stereo not shown) [Compound I-156] |
| 0.051 | Cc1cc(-c2ccc(N3C(=O)C(O)=C(C(=O)CC(C)C)C3c3ccccc3OC(C)C)cc2)cs1 (stereo not shown) [Compound I-373] |
| 0.022 | Cc1ccc(-c2ccc(N3C(=O)C(O)=C(C(=O)C(C)C)C3c3ccccc3OC(C)C)cc2)s1 (stereo not shown) [Compound I-400] |
| 0.057 | COc1ncccc1C1c2c(C(C)C)n[nH]c2C(=O)N1c1ccc(-c2ccsc2)cc1 (stereo not shown) [II-048] |
| 0.003 | COc1ccccc1C1c2c(C(C)(C)C)n[nH]c2C(=O)N1c1ccc(-c2cccs2)nc1 (stereo not shown) [II-255] |
| 0.013 | COCCCOc1ncccc1C1C(C(=O)C(C)C)=C(O)C(=O)N1c1ccc(-c2ccsc2)cc1 (stereo not shown) [Compound I-565] |
| 0.046 | CSc1ccccc1C1c2c(C(C)(C)C)n[nH]c2C(=O)N1c1ccc(-c2ccon2)cc1 (stereo not shown) [II-099] |
| 0.02 | COCOc1ccccc1C1C(C(=O)CC(C)C)=C(O)C(=O)N1c1ccc(-c2ccc(C)s2)cc1 (stereo not shown) [Compound I-305] |
| 0.01 | COCCOc1ccccc1C1c2c(C(C)(C)C)n[nH]c2C(=O)N1c1ccc(-c2ccoc2)cc1 (stereo not shown) [II-125] |
| 0.057 | COCCCOc1ncccc1C1C(C(=O)C(C)C)=C(O)C(=O)N1c1ccc(-c2ccoc2)cc1 (stereo not shown) [Compound I-567] |
| 0.024 | COc1ncccc1C1c2c(C(C)(C)C)n[nH]c2C(=O)N1c1ccc(-c2ccsc2)nc1 (stereo not shown) [II-268] |
| 0.024 | CCC(CC)C1C(C(=O)c2ccc(C(=O)N(C)C)cc2)=C(O)C(=O)N1c1ccc(-c2noc(C)n2)cc1 (stereo not shown) [Compound I-002] |
